Measured values as given in PMC6199744, “Development of Chemical Proteomics for the Folateome and Analysis of the Kinetoplastid Folateome” (ACS Infectious Diseases, 2018).
Like-named read-outs stand apart in the source and are kept apart here.

Assays:
Assay type in all cases: binding
[1] = target: T1, HeLa cell extract proteins (Homo sapiens, UniProt O75874)
T1 construct: endogenous in cells; host or cells: HeLa cell extract

[2] = target: T2, HeLa cell extract proteins (Homo sapiens, UniProt P63104)
T2 construct: endogenous in cells; host or cells: HeLa cell extract
T2 sequence (P63104 1-245): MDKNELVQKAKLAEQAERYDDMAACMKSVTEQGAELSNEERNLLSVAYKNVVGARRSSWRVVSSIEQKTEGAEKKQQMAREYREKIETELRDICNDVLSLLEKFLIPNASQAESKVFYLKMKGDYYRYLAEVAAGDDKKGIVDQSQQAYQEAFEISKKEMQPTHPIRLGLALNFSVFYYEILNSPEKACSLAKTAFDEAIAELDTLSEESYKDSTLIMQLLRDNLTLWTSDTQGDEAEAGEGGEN

[3] = target: T3, HeLa cell extract proteins (Homo sapiens, UniProt Q9NPA3)
T3 construct: endogenous in cells; host or cells: HeLa cell extract
T3 sequence (Q9NPA3 whole entry): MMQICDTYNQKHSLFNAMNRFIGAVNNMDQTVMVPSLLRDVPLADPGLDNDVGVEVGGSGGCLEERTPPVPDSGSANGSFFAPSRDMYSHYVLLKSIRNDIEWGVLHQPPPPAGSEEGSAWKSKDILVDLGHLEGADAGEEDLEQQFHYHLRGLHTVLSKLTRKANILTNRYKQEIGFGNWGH

[4] = target: T4, HeLa cell extract proteins (Homo sapiens, UniProt P25789)
T4 construct: endogenous in cells; host or cells: HeLa cell extract
T4 sequence (P25789 1-261): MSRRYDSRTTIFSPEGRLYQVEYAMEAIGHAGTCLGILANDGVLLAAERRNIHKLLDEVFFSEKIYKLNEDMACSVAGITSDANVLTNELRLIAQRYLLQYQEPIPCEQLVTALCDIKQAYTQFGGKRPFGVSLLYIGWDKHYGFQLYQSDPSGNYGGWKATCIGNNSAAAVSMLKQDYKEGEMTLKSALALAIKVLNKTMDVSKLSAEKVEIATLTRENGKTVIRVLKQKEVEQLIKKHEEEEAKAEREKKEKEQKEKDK

[5] = target: T5, HeLa cell extract proteins (Homo sapiens, UniProt Q9BQA1)
T5 construct: endogenous in cells; host or cells: HeLa cell extract
T5 sequence (Q9BQA1 whole entry): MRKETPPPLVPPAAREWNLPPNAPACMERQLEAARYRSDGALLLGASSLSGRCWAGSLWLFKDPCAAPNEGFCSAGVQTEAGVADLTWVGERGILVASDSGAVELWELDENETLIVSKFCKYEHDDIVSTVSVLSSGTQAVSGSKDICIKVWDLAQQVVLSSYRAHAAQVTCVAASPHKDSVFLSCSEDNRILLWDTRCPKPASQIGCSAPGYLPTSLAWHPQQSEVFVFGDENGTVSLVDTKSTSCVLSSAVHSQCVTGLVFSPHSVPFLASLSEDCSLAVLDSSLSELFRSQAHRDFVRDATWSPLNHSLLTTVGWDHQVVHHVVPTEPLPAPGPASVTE

[6] = target: T6, HeLa cell extract proteins (Homo sapiens, UniProt O00746)
T6 construct: endogenous in cells; host or cells: HeLa cell extract
T6 sequence (O00746 29-187): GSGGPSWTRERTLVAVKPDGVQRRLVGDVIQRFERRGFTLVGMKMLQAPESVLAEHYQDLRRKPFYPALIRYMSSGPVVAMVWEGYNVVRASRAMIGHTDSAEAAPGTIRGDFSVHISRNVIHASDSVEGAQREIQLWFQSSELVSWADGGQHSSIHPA

[7] = target: T7, HeLa cell extract proteins (Homo sapiens, UniProt O15397)
T7 construct: endogenous in cells; host or cells: HeLa cell extract
T7 sequence (O15397 whole entry): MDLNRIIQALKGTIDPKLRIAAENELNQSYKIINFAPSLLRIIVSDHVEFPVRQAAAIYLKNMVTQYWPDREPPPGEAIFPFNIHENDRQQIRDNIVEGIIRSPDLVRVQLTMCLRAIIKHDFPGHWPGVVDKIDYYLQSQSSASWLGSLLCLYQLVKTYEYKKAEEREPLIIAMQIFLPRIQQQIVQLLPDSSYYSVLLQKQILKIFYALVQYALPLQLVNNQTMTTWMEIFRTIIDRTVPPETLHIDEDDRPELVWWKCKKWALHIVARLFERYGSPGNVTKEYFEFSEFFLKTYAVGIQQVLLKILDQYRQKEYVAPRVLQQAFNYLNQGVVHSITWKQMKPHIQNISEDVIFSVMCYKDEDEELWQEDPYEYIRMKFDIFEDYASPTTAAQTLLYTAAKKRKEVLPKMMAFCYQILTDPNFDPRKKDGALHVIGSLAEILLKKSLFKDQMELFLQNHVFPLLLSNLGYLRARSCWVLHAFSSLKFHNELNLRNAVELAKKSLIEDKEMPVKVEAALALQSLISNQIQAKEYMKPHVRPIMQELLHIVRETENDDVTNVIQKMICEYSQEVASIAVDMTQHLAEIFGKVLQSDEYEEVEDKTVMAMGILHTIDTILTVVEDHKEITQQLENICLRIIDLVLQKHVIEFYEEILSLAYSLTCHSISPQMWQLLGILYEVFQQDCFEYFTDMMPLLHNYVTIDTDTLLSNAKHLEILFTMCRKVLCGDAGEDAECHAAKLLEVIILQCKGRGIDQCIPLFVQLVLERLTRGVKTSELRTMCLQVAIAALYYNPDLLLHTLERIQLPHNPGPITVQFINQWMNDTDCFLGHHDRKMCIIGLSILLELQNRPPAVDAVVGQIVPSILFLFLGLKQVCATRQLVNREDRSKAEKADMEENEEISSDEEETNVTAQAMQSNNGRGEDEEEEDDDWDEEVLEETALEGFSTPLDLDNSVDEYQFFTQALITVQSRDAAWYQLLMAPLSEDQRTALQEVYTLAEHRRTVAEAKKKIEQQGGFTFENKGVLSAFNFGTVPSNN

[8] = target: T8, HeLa cell extract proteins (Homo sapiens, UniProt P53634)
T8 construct: endogenous in cells; host or cells: HeLa cell extract
T8 sequence (P53634 25-463): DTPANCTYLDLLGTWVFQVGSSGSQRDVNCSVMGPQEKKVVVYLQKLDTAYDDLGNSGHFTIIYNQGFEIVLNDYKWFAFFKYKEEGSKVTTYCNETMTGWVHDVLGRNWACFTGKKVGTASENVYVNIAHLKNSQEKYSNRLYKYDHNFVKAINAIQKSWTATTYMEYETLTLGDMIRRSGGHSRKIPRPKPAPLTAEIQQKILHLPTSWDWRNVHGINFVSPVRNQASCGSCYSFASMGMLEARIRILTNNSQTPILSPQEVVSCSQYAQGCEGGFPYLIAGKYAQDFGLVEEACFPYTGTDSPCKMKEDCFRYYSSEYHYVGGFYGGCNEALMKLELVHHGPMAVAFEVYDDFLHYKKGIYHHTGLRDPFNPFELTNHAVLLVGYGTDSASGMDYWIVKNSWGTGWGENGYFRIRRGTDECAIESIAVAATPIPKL

[9] = target: T9, HeLa cell extract proteins (Homo sapiens, UniProt Q9C0E2)
T9 construct: endogenous in cells; host or cells: HeLa cell extract
T9 sequence (Q9C0E2 whole entry): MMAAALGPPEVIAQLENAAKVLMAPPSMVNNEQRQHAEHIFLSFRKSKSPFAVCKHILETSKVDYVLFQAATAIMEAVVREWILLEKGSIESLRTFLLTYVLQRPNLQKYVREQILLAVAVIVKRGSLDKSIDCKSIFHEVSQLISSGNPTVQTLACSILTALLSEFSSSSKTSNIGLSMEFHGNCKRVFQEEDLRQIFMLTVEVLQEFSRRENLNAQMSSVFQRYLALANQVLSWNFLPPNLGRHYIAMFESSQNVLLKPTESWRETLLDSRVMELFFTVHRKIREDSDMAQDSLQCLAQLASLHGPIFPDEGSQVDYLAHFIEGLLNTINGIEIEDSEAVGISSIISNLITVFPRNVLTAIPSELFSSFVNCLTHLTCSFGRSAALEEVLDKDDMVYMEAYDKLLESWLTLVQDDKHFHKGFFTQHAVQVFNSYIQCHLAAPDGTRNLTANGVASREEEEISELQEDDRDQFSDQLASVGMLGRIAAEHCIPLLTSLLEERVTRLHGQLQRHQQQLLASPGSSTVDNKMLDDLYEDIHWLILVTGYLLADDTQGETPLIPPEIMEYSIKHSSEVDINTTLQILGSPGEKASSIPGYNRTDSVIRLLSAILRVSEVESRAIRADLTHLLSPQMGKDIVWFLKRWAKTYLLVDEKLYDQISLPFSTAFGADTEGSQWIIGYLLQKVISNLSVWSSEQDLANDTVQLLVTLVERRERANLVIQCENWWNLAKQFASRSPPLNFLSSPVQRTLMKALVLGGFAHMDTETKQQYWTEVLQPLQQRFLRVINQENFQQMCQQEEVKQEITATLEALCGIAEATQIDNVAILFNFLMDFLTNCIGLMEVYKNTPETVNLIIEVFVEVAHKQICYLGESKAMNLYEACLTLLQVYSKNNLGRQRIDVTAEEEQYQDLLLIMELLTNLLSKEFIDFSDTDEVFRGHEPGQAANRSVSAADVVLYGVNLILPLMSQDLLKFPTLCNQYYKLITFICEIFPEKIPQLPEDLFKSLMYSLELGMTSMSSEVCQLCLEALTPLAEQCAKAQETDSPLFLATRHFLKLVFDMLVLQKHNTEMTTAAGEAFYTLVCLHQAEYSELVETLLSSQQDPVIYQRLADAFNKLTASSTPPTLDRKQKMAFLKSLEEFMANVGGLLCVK

[10] = target: T10, HeLa cell extract proteins (Homo sapiens, UniProt Q53GQ0)
T10 construct: endogenous in cells; host or cells: HeLa cell extract
T10 sequence (Q53GQ0 1-312): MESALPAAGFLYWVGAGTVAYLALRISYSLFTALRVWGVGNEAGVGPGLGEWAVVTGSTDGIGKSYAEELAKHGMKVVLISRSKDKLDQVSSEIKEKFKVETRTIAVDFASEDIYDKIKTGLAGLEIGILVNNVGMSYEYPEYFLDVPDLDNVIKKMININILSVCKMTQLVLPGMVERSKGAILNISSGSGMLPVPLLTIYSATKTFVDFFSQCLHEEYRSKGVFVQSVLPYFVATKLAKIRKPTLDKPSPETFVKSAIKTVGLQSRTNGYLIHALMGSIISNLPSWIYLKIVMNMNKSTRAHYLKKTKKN

[11] = target: T11, HeLa cell extract proteins (Homo sapiens, UniProt P23284)
T11 construct: endogenous in cells; host or cells: HeLa cell extract
T11 sequence (P23284 34-216): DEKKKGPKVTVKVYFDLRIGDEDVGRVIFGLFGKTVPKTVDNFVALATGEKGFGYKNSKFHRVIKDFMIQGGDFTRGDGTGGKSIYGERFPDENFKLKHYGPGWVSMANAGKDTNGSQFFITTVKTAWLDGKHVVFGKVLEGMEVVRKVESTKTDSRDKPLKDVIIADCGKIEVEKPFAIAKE

[12] = target: T12, HeLa cell extract proteins (Homo sapiens, UniProt P05166)
T12 construct: endogenous in cells; host or cells: HeLa cell extract
T12 sequence (P05166 29-539): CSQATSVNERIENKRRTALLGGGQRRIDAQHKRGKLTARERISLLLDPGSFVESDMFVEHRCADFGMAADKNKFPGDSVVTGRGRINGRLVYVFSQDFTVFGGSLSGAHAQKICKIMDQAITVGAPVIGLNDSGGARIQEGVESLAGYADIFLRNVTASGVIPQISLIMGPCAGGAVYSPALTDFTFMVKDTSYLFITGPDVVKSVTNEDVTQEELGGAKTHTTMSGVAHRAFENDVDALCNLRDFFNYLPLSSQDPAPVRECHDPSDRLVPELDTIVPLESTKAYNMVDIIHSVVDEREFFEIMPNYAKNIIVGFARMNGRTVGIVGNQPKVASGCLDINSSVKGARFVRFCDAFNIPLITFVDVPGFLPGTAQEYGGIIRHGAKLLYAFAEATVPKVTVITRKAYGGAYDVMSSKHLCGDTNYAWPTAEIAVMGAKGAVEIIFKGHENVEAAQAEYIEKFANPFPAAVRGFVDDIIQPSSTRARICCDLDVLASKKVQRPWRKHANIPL

[13] = HeLa, protein IDH1 (ISOCITRATE DEHYDROGENASE [NADP] CYTOPLASMIC.)
[14] = HeLa, protein YWHAZ (28 KDA PROTEIN.)
[15] = captured protein HSD17B12, HeLa
[16] = HeLa, protein PPIB (PEPT[…] B PRECURSOR.)
[17] = HeLa, protein CTSC (DIPEPTIDYL-PEPTIDASE 1 PRECURSOR)

T1 sequence (O75874 whole entry): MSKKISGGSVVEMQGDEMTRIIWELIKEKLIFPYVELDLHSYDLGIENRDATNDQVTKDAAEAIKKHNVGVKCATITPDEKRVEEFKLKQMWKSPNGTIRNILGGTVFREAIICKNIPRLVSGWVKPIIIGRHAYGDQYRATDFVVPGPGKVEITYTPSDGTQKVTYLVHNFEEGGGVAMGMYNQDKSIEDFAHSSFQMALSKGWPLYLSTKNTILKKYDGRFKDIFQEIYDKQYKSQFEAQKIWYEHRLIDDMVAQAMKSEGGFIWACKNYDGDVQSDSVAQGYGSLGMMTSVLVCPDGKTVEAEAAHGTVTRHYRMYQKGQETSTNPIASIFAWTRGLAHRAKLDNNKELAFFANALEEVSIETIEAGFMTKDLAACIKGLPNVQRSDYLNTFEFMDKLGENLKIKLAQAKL

SMILES: CCCCCCOc1cccc(Cc2cnc(N)nc2N)c1 [compound 2]
- fold changes relative to vehicle control [1, 13]: 2.46 fold
- fold changes relative to vehicle control [2, 14]: 2.26 fold
- fold changes relative to vehicle control ([3]; captured protein MIG12, HeLa): 1
- fold changes relative to vehicle control ([4]; protein PSMA4, HeLa): 1.19
- fold changes relative to vehicle control ([5]; protein WDR77, HeLa): 1.33
- fold changes relative to vehicle control ([6]; HeLa, protein NME4): 0.92
- fold changes relative to vehicle control ([7]; captured protein IPO8, HeLa): 0.8
- fold changes relative to vehicle control ([8]; protein CTSC, HeLa): 0.95
- fold changes relative to vehicle control ([9]; HeLa, protein XPO4): 1.08
- fold changes relative to vehicle control [10, 15]: 0.91
- fold changes relative to vehicle control [11, 16]: 2.04 fold
- fold changes relative to vehicle control ([12]; captured protein PCCB, HeLa): 0.92

SMILES: NCCOCCOCC(=O)Nc1nc2ncc(CNc3ccc(C(=O)NC(CCC(=O)O)C(=O)O)cc3)nc2c(=O)[nH]1 (stereo not drawn) [compound 6]
- fold changes relative to vehicle control ([1]; HeLa, captured protein IDH1): 1.29
- fold changes relative to vehicle control ([2]; HeLa, protein YWHAZ): 1.22
- fold changes relative to vehicle control ([3]; HeLa, protein MIG12): 1.1
- fold changes relative to vehicle control ([4]; HeLa, captured protein PSMA4): 1.06
- fold changes relative to vehicle control ([5]; HeLa, protein WDR77): 1.03
- fold changes relative to vehicle control ([6]; HeLa, protein NME4): 0.81
- fold changes relative to vehicle control ([7]; protein IPO8, HeLa): 0.91
- fold changes relative to vehicle control [8, 17]: 0.82
- fold changes relative to vehicle control ([9]; HeLa, protein XPO4): 0.94
- fold changes relative to vehicle control ([10]; protein HSD17B12, HeLa): 0.96
- fold changes relative to vehicle control ([11]; HeLa, captured protein PPIB): 1.49
- fold changes relative to vehicle control ([12]; HeLa, protein PCCB): 0.91

SMILES: CCCCCCOc1ccc(Cc2cnc(N)nc2N)cc1 [compound 1]
- fold changes relative to vehicle control [1, 13]: 1.52 fold
- fold changes relative to vehicle control [2, 14]: 1.31 fold
- fold changes relative to vehicle control ([3]; captured protein MIG12, HeLa): 0.84
- fold changes relative to vehicle control ([4]; protein PSMA4, HeLa): 1.1
- fold changes relative to vehicle control ([5]; protein WDR77, HeLa): 1.12
- fold changes relative to vehicle control ([6]; HeLa, protein NME4): 0.97
- fold changes relative to vehicle control ([7]; captured protein IPO8, HeLa): 0.55
- fold changes relative to vehicle control ([8]; protein CTSC, HeLa): 0.89
- fold changes relative to vehicle control ([9]; HeLa, protein XPO4): 0.91
- fold changes relative to vehicle control [10, 15]: 0.87
- fold changes relative to vehicle control [11, 16]: 1.37 fold
- fold changes relative to vehicle control ([12]; captured protein PCCB, HeLa): 0.99

SMILES: Nc1nc2c(c(=O)[nH]1)N(C=O)C(CNc1ccc(C(=O)N[C@@H](CCC(=O)O)C(=O)O)cc1)CN2 (stereo partly drawn) [LEU, leucovorin]
- fold changes relative to vehicle control ([1]; HeLa, captured protein IDH1): 1.14
- fold changes relative to vehicle control ([2]; HeLa, protein YWHAZ): 1.05
- fold changes relative to vehicle control ([3]; HeLa, protein MIG12): 0.91
- fold changes relative to vehicle control ([4]; HeLa, captured protein PSMA4): 1.05
- fold changes relative to vehicle control ([5]; HeLa, protein WDR77): 0.83
- fold changes relative to vehicle control ([6]; HeLa, protein NME4): 1.04
- fold changes relative to vehicle control ([7]; protein IPO8, HeLa): 0.86
- fold changes relative to vehicle control [8, 17]: 1.03
- fold changes relative to vehicle control ([9]; HeLa, protein XPO4): 0.92
- fold changes relative to vehicle control ([10]; protein HSD17B12, HeLa): 0.78
- fold changes relative to vehicle control ([11]; HeLa, captured protein PPIB): 1
- fold changes relative to vehicle control ([12]; HeLa, protein PCCB): 0.97

SMILES: NCCCNc1ccc(C(=O)NC(CCC(=O)O)C(=O)O)cc1 (stereo not drawn) [compound 7]
- fold changes relative to vehicle control ([1]; HeLa, captured protein IDH1): 0.96
- fold changes relative to vehicle control ([2]; HeLa, protein YWHAZ): 0.9
- fold changes relative to vehicle control ([3]; HeLa, protein MIG12): 1.11
- fold changes relative to vehicle control ([4]; HeLa, captured protein PSMA4): 1.03
- fold changes relative to vehicle control ([5]; HeLa, protein WDR77): 0.96
- fold changes relative to vehicle control ([6]; HeLa, protein NME4): 0.98
- fold changes relative to vehicle control ([7]; protein IPO8, HeLa): 0.82
- fold changes relative to vehicle control [8, 17]: 0.97
- fold changes relative to vehicle control ([9]; HeLa, protein XPO4): 1
- fold changes relative to vehicle control ([10]; protein HSD17B12, HeLa): 1.19
- fold changes relative to vehicle control ([11]; HeLa, captured protein PPIB): 1.22
- fold changes relative to vehicle control ([12]; HeLa, protein PCCB): 1.17

SMILES: Nc1nc2[nH]cc(CCc3ccc(C(=O)N[C@@H](CCC(=O)O)C(=O)O)cc3)c2c(=O)[nH]1 [PTX, pemetrexed]
- fold changes relative to vehicle control [1]: 1.18
- fold changes relative to vehicle control [2]: 1.08
- fold changes relative to vehicle control [3]: 0.96
- fold changes relative to vehicle control [4]: 1.02
- fold changes relative to vehicle control [5]: 0.81
- fold changes relative to vehicle control [6]: 0.81
- fold changes relative to vehicle control [7]: 0.83
- fold changes relative to vehicle control [8]: 0.84
- fold changes relative to vehicle control [9]: 0.82
- fold changes relative to vehicle control [10]: 0.91
- fold changes relative to vehicle control [11]: 1.11
- fold changes relative to vehicle control [12]: 0.22

SMILES: Nc1nc2cccc(-c3ccccc3)c2n1Cc1ccc(Cl)c(Cl)c1 [compound 3]
- fold changes relative to vehicle control [1, 13]: 0.95 fold
- fold changes relative to vehicle control [2, 14]: 0.72 fold
- fold changes relative to vehicle control ([3]; captured protein MIG12, HeLa): 0.95
- fold changes relative to vehicle control ([4]; protein PSMA4, HeLa): 1.06
- fold changes relative to vehicle control ([5]; protein WDR77, HeLa): 1
- fold changes relative to vehicle control ([6]; HeLa, protein NME4): 0.96
- fold changes relative to vehicle control ([7]; captured protein IPO8, HeLa): 0.6
- fold changes relative to vehicle control ([8]; protein CTSC, HeLa): 0.86
- fold changes relative to vehicle control ([9]; HeLa, protein XPO4): 1.07
- fold changes relative to vehicle control [10, 15]: 1.15
- fold changes relative to vehicle control [11, 16]: 1.25 fold
- fold changes relative to vehicle control ([12]; captured protein PCCB, HeLa): 1
